Reference: US8802664B2 (Bioproject, priority 2010, dated 2014)

Assays:
human H4 receptor = target: T1, human H4 receptor (Homo sapiens, UniProt Q9H3N8); assay: [3H]Histamine binding on membranes of CHO cells stably expressing human H4 receptor
T1 construct: expressed in transfected cells
Summary of the method: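 Nonspecific signal was taken as that remaining with 10 μM JNJ 7777120 present. Assays contained 20 μg CHO-derived hH4 membrane protein in Tris/HCl–EDTA buffer (pH 7.4) and were terminated on polyethyleneimine-soaked filters, with bound tritium quantified by scintillation.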

T1 sequence (Q9H3N8 whole entry): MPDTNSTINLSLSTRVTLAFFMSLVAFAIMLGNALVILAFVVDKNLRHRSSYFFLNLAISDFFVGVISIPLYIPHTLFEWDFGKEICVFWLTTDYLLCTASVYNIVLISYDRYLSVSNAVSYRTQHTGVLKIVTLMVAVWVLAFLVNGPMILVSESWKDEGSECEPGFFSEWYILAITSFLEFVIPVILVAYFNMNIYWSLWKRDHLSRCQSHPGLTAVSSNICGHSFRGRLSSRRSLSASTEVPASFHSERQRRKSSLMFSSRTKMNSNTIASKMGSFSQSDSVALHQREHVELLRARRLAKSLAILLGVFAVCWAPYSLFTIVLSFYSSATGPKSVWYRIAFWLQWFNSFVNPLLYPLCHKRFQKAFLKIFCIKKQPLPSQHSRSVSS

Row | Compound | Ki or IC50 activity class (human H4 receptor) [nM] | melting point [°C]
1 | CN1CCC(OC(c2nc3ccccc3[nH]2)c2cc(Oc3ccccc3)ccc2O)CC1 (stereo not drawn) [Example 609] | < 300 | 140
2 | CN1CCC(OC(c2ccccc2)c2nc3cc(Cl)c(Cl)cc3[nH]2)CC1 (stereo not drawn) [Example 165, 5,6-dichloro-2-[(1-methylpiperidin-4-yloxy)phenylmethyl]-1H-benzimidazole] | < 300 | 221
3 | Cc1ccc(C(OC2CCN(C)CC2)c2nc3ccccc3[nH]2)cc1 (stereo not drawn) [Example 177, 2-[(1-methylpiperidin-4-yloxy)-p-tolyl-methyl]-1H-benzimidazole] | < 300 | 102
4 | CN1CCC(OC(c2ccc(C(F)(F)F)cc2)c2nc3ccccc3[nH]2)CC1 (stereo not drawn) [Example 537] | < 1000 | 86
5 | CN1CCC(OC(c2nc3ccccc3[nH]2)c2cc(F)ccc2O)CC1 (stereo not drawn) [Example 572] | < 30 | 142
6 | CN1CCC(OC(c2nc3ccccc3[nH]2)c2cc(OCCCF)ccc2O)CC1 (stereo not drawn) [Example 606] | < 300 | 114
7 | CN1CCC(OC(c2cccc(SCCNC(=N)NC(=O)OC(C)(C)C)c2)c2nc3ccccc3s2)CC1 (stereo not drawn) [Example 304, N-tert-butoxycarbonyl-N′-(2-{3-[(benzothiazol-2-yl)(1-methylpiperidin-4-yloxy)methyl]phenylsulfanyl}ethyl)guanidine] | < 30 | 110
8 | CN1CCC(OC(c2cccc(O)c2)c2nc3ccccc3s2)CC1 (stereo not drawn) [Example 62, 3-[benzothiazol-2-yl(1-methylpiperidin-4-yloxy)methyl]phenol] | < 30 | 201
9 | CN1CCC(OC(c2nc3ccccc3[nH]2)c2cc(OCCF)ccc2O)CC1 (stereo not drawn) [Example 605] | < 30 | 222
10 | CN1CCC(OC(c2nc3ccccc3[nH]2)c2ccc(Cl)cc2O)CC1 (stereo not drawn) [Example 585] | < 30 | 142
11 | CN1CCC(OC(c2ccccc2)c2nc3ccccc3[nH]2)C1 (stereo not drawn) [Example 272, 2-[(1-methylpyrrolidin-3-yloxy)phenyl-methyl]-1H-benzimidazole] | < 1000 | 53
12 | CN1CCC(OC(c2nc3ccccc3[nH]2)c2ccccc2Cl)CC1 (stereo not drawn) [Example 151, 2-[(2-chlorophenyl)(1-methylpiperidin-4-yloxy)methyl]-1H-benzimidazole] | < 300 | 212
13 | CC(C)CCCOc1cccc(C(NC2CCN(C)CC2)c2nc3ccccc3[nH]2)c1 (stereo not drawn) [Example 146, {(1H-benzimidazol-2-yl)[3-(4-methylpentyloxy)phenyl]methyl}(1-methylpiperidin-4-yl)amine] | < 300 | 73
14 | CCCOc1ccc(O)c(C(OC2CCN(C)CC2)c2nc3ccccc3[nH]2)c1 (stereo not drawn) [Example 603] | < 300 | 120
15 | CN1CCC(OC(c2cccc(OCCN)c2)c2nc3ccccc3[nH]2)CC1 (stereo not drawn) [Example 291, 2-{3-[(1H-benzimidazol-2-yl)(1-methylpiperidin-4-yloxy)methyl]phenoxy}ethylamine] | < 300 | 90
16 | CN1CCC(OC(c2cccc(C#CCN)c2)c2nc3ccccc3[nH]2)CC1 (stereo not drawn) [Example 194, 3-{3-[(1H-benzimidazol-2-yl)(1-methylpiperidin-4-yloxy)methyl]phenyl}prop-2-ynylamine] | < 300 | 101
17 | CCCOc1cccc(C(OC2CCN(C)CC2)c2nc3ccccc3[nH]2)c1 (stereo not drawn) [Example 49, 2-[(1-methylpiperidin-4-yloxy)(3-propoxyphenyl)methyl]-1H-benzimidazole] | < 1000 | 135
18 | CCOc1cccc(C(NC2CCN(C)CC2)c2nc3ccccc3[nH]2)c1 (stereo not drawn) [Example 83, [(1H-benzimidazol-2-yl)(3-ethoxyphenyl)methyl](1-methylpiperidin-4-yl)amine] | < 300 | 74
19 | COc1cc(F)cc(C(OC2CCN(C)CC2)c2nc3ccccc3[nH]2)c1O (stereo not drawn) [Example 610] | < 1000 | 108
20 | CN1CCC(OC(c2nc3ccccc3[nH]2)c2cc(OC(F)(F)F)ccc2O)CC1 (stereo not drawn) [Example 571] | < 30 | 132
21 | CN1CCC(OC(c2ccc3c(c2)OCCO3)c2nc3ccccc3[nH]2)CC1 (stereo not drawn) [Example 300, 2-[(2,3-dihydrobenzo[1,4]dioxin-6-yl)(1-methylpiperidin-4-yloxy)methyl]-1H-benzimidazole] | < 300 | 203
22 | Cc1cc(O)c(C(OC2CCN(C)CC2)c2nc3ccccc3[nH]2)cc1C (stereo not drawn) [Example 611] | < 30 | 139
23 | CN1CCC(OC(c2cccc(Br)c2)c2nc3ccccc3s2)CC1 (stereo not drawn) [Example 27, 2-[(3-bromo-phenyl)(1-methylpiperidin-4-yloxy)methyl]benzothiazole] | < 30 | 99
24 | CN1CCC(NC(c2cccc([N+](=O)[O-])c2)c2nc3ccccc3[nH]2)CC1 (stereo not drawn) [Example 131, [(1H-benzimidazol-2-yl)(3-nitrophenyl)methyl](1-methylpiperidin-4-yl)amine] | < 300 | 254
25 | CN1CCC(OC(c2cccc(Br)c2)c2nc3cc(F)c(F)c(F)c3[nH]2)CC1 (stereo not drawn) [Example 481, 2-[(3-bromophenyl)(1-methylpiperidin-4-yloxy)methyl]-5,6,7-trifluoro-1H-benzimidazole] | < 1000 | 140
26 | CN1CCC(NC(c2cccc(C(F)(F)F)c2)c2nc3ccccc3[nH]2)CC1 (stereo not drawn) [Example 59, [(1H-benzimidazol-2-yl)(3-trifluoromethylphenyl)methyl](1-methylpiperidin-4-yl)amine] | < 30 | 90
27 | CN1CCC(NC(c2cccc(OCc3cccc(F)c3F)c2)c2nc3ccccc3[nH]2)CC1 (stereo not drawn) [Example 162, {(1H-benzimidazol-2-yl)[3-(2,3-difluoro-benzyloxy)phenyl]methyl}(1-methylpiperidin-4-yl)amine] | < 30 | 151
28 | CN1CCC(OC(c2nc3ccccc3[nH]2)c2cccc(OC(F)(F)F)c2O)CC1 (stereo not drawn) [Example 620] | < 30 | 126
29 | C=CCCOc1cccc(C(NC2CCN(C)CC2)c2nc3ccccc3[nH]2)c1 (stereo not drawn) [Example 145, [(1H-benzimidazol-2-yl)(3-but-3-enyloxyphenyl)methyl](1-methylpiperidin-4-yl)amine] | < 300 | 71
30 | CN1CCC(OC(c2ccccc2)c2nc3ccccc3[nH]2)CC1 (stereo not drawn) [Example 30, 2-[(1-methylpiperidin-4-yloxy)phenylmethyl]-1H-benzimidazole] | < 300 | 110
